Earlier results as cited in US10875836B2, “Callyspongiolide, analogs thereof and uses thereof” (Purdue Research Foundation, priority 2016, dated 2020).
pIC50: −log10 of the molar value.

How the values were obtained:
[1] = system: human Jurkat J16 T lymphocytes
[2] = system: human Ramos B lymphocytes

| Molecule | pIC50 [1] | pIC50 [2] | cytotoxicity (A549 cell line) | cytotoxicity (K562 cell line) |
| --- | --- | --- | --- | --- |
| C[C@@H]1C/C=C\C(=O)O[C@H](/C=C/C#C/C=C/C(C)(C)[C@@H](O)c2cccc(O)c2Br)[C@@H](C)/C=C/[C@H](C)C[C@H](OC(N)=O)C1 [callyspongiolide] | 7.15 | 7.22 | – | – |
| callyazepin | – | – | moderate cytotoxicity | moderate cytotoxicity |
